Experimental data as given in BigSolDB 2.1.

SMILES: O=[N+]([O-])/N=C1\NCCN1Cc1ccc(Cl)nc1
- solubility (mole fraction) (in acetone, 283.15 K): 0.00862
- solubility (mole fraction) (in acetone, 288.15 K): 0.0102
- solubility (mole fraction) (in acetone, 293.15 K): 0.012
- solubility (mole fraction) (in acetone, 298.15 K): 0.014
- solubility (mole fraction) (in acetone, 303.15 K): 0.0163
- solubility (mole fraction) (in acetone, 308.15 K): 0.0188
- solubility (mole fraction) (in acetone, 313.15 K): 0.0218
- solubility (mole fraction) (in acetone, 318.15 K): 0.0249
- solubility (mole fraction) (in acetone, 323.15 K): 0.0285
- solubility (mole fraction) (in ethanol, 283.15 K): 0.000303
- solubility (mole fraction) (in ethanol, 288.15 K): 0.0004
- solubility (mole fraction) (in ethanol, 293.15 K): 0.00053
- solubility (mole fraction) (in ethanol, 298.15 K): 0.000699
- solubility (mole fraction) (in ethanol, 303.15 K): 0.000895
- solubility (mole fraction) (in ethanol, 308.15 K): 0.00115
- solubility (mole fraction) (in ethanol, 313.15 K): 0.00148
- solubility (mole fraction) (in ethanol, 318.15 K): 0.00191
- solubility (mole fraction) (in ethanol, 323.15 K): 0.00238
- solubility (mole fraction) (in methanol, 283.15 K): 0.000689
- solubility (mole fraction) (in methanol, 288.15 K): 0.000882
- solubility (mole fraction) (in methanol, 293.15 K): 0.00112
- solubility (mole fraction) (in methanol, 298.15 K): 0.00141
- solubility (mole fraction) (in methanol, 303.15 K): 0.00177
- solubility (mole fraction) (in methanol, 308.15 K): 0.00221
- solubility (mole fraction) (in methanol, 313.15 K): 0.00274
- solubility (mole fraction) (in methanol, 318.15 K): 0.00339
- solubility (mole fraction) (in methanol, 323.15 K): 0.0041
- solubility (mole fraction) (in n-propanol, 283.15 K): 0.000266
- solubility (mole fraction) (in n-propanol, 288.15 K): 0.000362
- solubility (mole fraction) (in n-propanol, 293.15 K): 0.000475
- solubility (mole fraction) (in n-propanol, 298.15 K): 0.00064
- solubility (mole fraction) (in n-propanol, 303.15 K): 0.000837
- solubility (mole fraction) (in n-propanol, 308.15 K): 0.00109
- solubility (mole fraction) (in n-propanol, 313.15 K): 0.0014
- solubility (mole fraction) (in n-propanol, 318.15 K): 0.00179
- solubility (mole fraction) (in n-propanol, 323.15 K): 0.00228
- solubility (mole fraction) (in water, 283.15 K): 6.79e-06
- solubility (mole fraction) (in water, 288.15 K): 9.67e-06
- solubility (mole fraction) (in water, 293.15 K): 1.36e-05
- solubility (mole fraction) (in water, 298.15 K): 1.87e-05
- solubility (mole fraction) (in water, 303.15 K): 2.56e-05
- solubility (mole fraction) (in water, 308.15 K): 3.43e-05
- solubility (mole fraction) (in water, 313.15 K): 4.71e-05
- solubility (mole fraction) (in water, 318.15 K): 6.23e-05
- solubility (mole fraction) (in water, 323.15 K): 8.15e-05
